The results in this text go back to patent US10034886B2, “GLP-1 receptor modulators” (Celgene International II SÀRL, priority 2014, dated 2018).

Structures are written as SMILES. Where two headings read alike, the source gives them in different places.

For the assay, the target named is T1, GLP-1R (Homo sapiens, UniProt P43220).
T1 construct: host or cells: GLP-1R CRE-bla CHO-K1 cells
Nature of the assay: EC20 GLP-1(9-36) PAM cAMP assay: dose response of compound in the presence of fixed concentration of GLP-1(9-36). In kind it is cell-based. To be noted: GLP-1R CRE-bla CHO-K1 cells, read-out: EC20 GLP-1(9-36) PAM EC50. In a few lines: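 GLP-1R CRE-bla CHO-K1 cells treated 30 min at 37 °C with 12-point compound dose response plus fixed EC20 GLP-1(9-36), with IBMX, in HBSS/HEPES/0.1% BSA pH 7.4. Total cAMP measured by luminescent detection against standard curve; EC50 and Emax from non-linear regression.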
On the technique in general: Changes in cAMP serve as a functional read-out for many G protein-coupled receptors.

Setting [1] is: dose response of compound in presence of fixed concentration of GLP-1(9-36).
The mark [2] stands for this setting: compound dose response with fixed concentration of GLP-1(9-36).

T1 sequence (P43220 24-463): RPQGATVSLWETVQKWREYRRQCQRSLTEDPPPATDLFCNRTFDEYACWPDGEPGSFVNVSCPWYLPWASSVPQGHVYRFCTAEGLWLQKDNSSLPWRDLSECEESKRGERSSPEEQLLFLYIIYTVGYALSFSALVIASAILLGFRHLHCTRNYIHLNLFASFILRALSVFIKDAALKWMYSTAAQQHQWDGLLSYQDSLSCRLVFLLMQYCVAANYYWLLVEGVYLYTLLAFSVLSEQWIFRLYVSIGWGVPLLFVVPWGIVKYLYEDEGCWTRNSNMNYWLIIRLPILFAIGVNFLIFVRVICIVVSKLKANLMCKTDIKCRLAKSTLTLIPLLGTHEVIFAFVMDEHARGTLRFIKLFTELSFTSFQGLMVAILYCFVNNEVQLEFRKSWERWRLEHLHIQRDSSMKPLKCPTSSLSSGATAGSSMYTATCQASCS
T1 sequence (P01275 100-127 partner limits assumed): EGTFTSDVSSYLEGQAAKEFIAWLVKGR

`CCCCCCCOc1ccc(-c2cnc(-c3ccc(C[C@H](NC(=O)c4cnc(C(C)(C)C)nc4)C(=O)N4CC[C@H](C(=O)O)C4)cc3)nc2)cc1` [Compound 856]: under setting [1], the EC50 (in general, the concentration at which the effect is half-maximal) was in the range of 0.8 to 2.5 µM.

Consider `CCCCCCCOc1ccc(-c2cnc(-c3ccc(C[C@H](NC(=O)c4ccc(C(C)(C)C)s4)C(=O)N4CCN(c5ncccn5)CC4)cc3)nc2)cc1` [Compound 967], for which the EC50 under setting [1] lay in the range of 2.5 to 5 µM.

On to `COc1cccc(/C=C/c2cnc(-c3ccc(C[C@H](NC(=O)c4ccc(C(C)(C)C)s4)C(=O)N[C@H](C)C(=O)O)cc3)nc2)c1` [Compound 1263], for which the EC50 under setting [2] was in the range of 2.5 to 5 µM.

On to `CCC[C@H]1CC[C@H](C2CCN(c3cnc(-c4ccc(C[C@H](NC(=O)c5cnn(C(C)(C)C)c5)C(=O)N5CC(C(=O)O)C5)cc4)nc3)CC2)CC1` [Compound 1516], for which the EC50 under setting [2] is below 0.8 µM.

Regarding `CCCCCCCOc1ccc(-c2cnc(-c3ccc(C[C@H](NC(=O)c4ccc(C(C)(C)C)s4)C(=O)N[C@H](C(=O)O)[C@H](C)O)cc3)nc2)cc1` [Compound 646], under setting [1], the EC50 was below 0.8 µM.

As for `CCCCCCCOc1ccc(-c2cnc(-c3ccc(C[C@H](NC(=O)c4ccc(C(C)(C)C)s4)C(=O)N[C@@H](Cc4ccccc4)C(=O)O)cc3)nc2)cc1` [Compound 648], under setting [1], the EC50 is 0.8 to 2.5 µM.

For `CCC[C@H]1CC[C@H](C2CCN(c3cnc(-c4ccc(C[C@H](NC(=O)c5ccc(C(C)(C)C)nc5)C(=O)N5CC(C(=O)O)C5)cc4)nc3)CC2)CC1` [Compound 1531], the EC50 under setting [2] was below 0.8 µM.

On to `CCCCCCCOc1ccc(-c2cnc(-c3ccc(C[C@H](NC(=O)c4ccc(O)c(F)c4)C(=O)N[C@H](C)C(=O)O)cc3)nc2)cc1` [Compound 983], for which the EC50 under setting [1] is 5 to 10 µM.

In the case of `CC(C)Oc1ccc(-c2cnc(-c3ccc(C[C@H](NC(=O)c4ccc(C(C)(C)C)cc4)C(=O)NCCC(=O)O)cc3)nc2)cc1` [Compound 695], under setting [1], the EC50 lay in the range of 2.5 to 5 µM.

Consider `CCC/C=C/CCOc1ccc(-c2cnc(-c3ccc(C[C@H](NC(=O)c4ccc(C(C)(C)C)cc4)C(=O)NCCC(=O)O)cc3)nc2)cc1` [Compound 716], for which the EC50 under setting [1] lay in the range of 0.8 to 2.5 µM.

Consider `CCCCCCCOc1ccc(-c2cnc(-c3ccc(CC(NC(=O)c4ccc(C(C)(C)C)s4)C(=O)N[C@@H](Cc4ccc(O)cc4)C(=O)O)cc3)nc2)cc1` (stereo partly drawn) [Compound 428], for which the EC50 under setting [1] is 0.8 to 2.5 µM.

In the case of `CCCCCCCOc1ccc(-c2cnc(-c3ccc(C[C@H](NC(=O)c4ccc(C(C)(C)C)cc4)C(=O)NCCC(=O)O)cc3)nc2)cc1C#N` [Compound 700], under setting [1], the EC50 lay in the range of 5 to 10 µM.

On to `CCCCCCCOc1ccc(-c2cnc(-c3ccc(C[C@H](NC(=O)c4ccc(C(C)(C)C)s4)C(=O)NC(C(=O)O)C(O)C4CCCO4)cc3)nc2)cc1` (stereo partly drawn) [Compound 916], for which, under setting [1], the EC50 was in the range of 0.8 to 2.5 µM.

`CC(C)(C)c1ccc(C(=O)N[C@@H](Cc2ccc(-c3ncc(-c4ccc(-c5ccc(C(F)(F)F)cc5)cc4F)cn3)cc2)C(=O)O)s1` [Compound 1364]: the EC50 under setting [2] was below 0.8 µM.

Regarding `CCCCCCCOc1ccc(-c2cnc(-c3ccc(C[C@H](NC(=O)c4ccc(C5CC5)cc4)C(=O)N4CC[C@H](C(=O)O)C4)cc3)nc2)cc1` [Compound 857], the EC50 under setting [1] was 5 to 10 µM.

On to `CCCCCCCOc1ccc(-c2cnc(-c3ccc(C[C@H](NC(=O)c4oc(C(C)(C)C)cc4C)C(=O)N4CC(C(=O)O)C4)cc3)nc2)cc1` [Compound 1101], for which the EC50 under setting [1] was in the range of 0.8 to 2.5 µM.

With `CCCc1ccc(C(=O)N[C@@H](Cc2ccc(-c3ncc(-c4ccc([C@H]5CC[C@H](CC)CC5)cc4)cn3)cc2)C(=O)O)cc1` [Compound 1372], the EC50 under setting [2] is 0.8 to 2.5 µM.

For the compound `CCOc1ccc(/C=C/c2cnc(-c3ccc(C[C@H](NC(=O)c4ccc(C(C)(C)C)s4)C(=O)N[C@H](C)C(=O)O)cc3)nc2)cc1` [Compound 1258], under setting [2], the EC50 is 0.8 to 2.5 µM.

Regarding `CCCCCCCOc1ccc(-c2cnc(-c3ccc(C[C@H](NC(=O)c4ccc(C(C)(C)C)cc4)C(=O)N4CCC(C(=O)O)CC4)cc3)nc2)cc1` [Compound 578], the concentration giving a half-maximal response (EC50) under setting [1] is 2.5 to 5 µM.

Consider `CCCCCCCOc1ccc(-c2cnc(-c3ccc(C[C@H](NC(=O)c4ccc(C(C)(C)C)nc4)C(=O)N4CCC[C@H]4C(=O)O)cc3)nc2)cc1` [Compound 1077], for which the EC50 under setting [1] was in the range of 0.8 to 2.5 µM.

As to `CC(C)CCCOc1ccc(-c2cnc(-c3ccc(C[C@H](NC(=O)c4ccc(C(C)(C)C)cc4)C(=O)N[C@H](C)C(=O)O)cc3)nc2)cc1` [Compound 793], the EC50 under setting [1] lay within 0.8 to 2.5 µM.

For the compound `CCCCCCCOc1ccc(-c2cnc(-c3ccc(C[C@H](NC(=O)c4ccc(CCCC)cc4)C(=O)N4CC(C(=O)O)C4)cc3)nc2)cc1` [Compound 1115], the EC50 under setting [1] was in the range of 0.8 to 2.5 µM.

`CCCCCCCOc1ccc(-c2cnc(-c3ccc(C[C@H](NC(=O)c4ccc(C(C)(C)C)s4)C(=O)N4CCC[C@H]4C(=O)N4CCCC4C(=O)O)cc3)nc2)cc1` (stereo partly drawn) [Compound 497]: the EC50 under setting [1] was below 0.8 µM.

`CCCc1ccc(-c2ccc(-c3cnc(-c4ccc(C[C@H](NC(=O)c5ccc(CCC)s5)C(=O)N5CC(C(=O)O)C5)cc4)nc3)c(F)c2)cc1` [Compound 1409]: under setting [2], the EC50 was below 0.8 µM.

With `CCCCCCCOc1ccc(-c2cnc(-c3ccc(C[C@H](NC(=O)c4ccc(C(C)(C)C)cc4)C(=O)NC(C(=O)O)C(C)c4ccccc4)cc3)nc2)cc1` (stereo partly drawn) [Compound 574], the EC50 under setting [1] fell in the range of 0.8 to 2.5 µM.

With `CCOc1ccc(C(=O)N[C@@H](Cc2ccc(-c3ncc(-c4ccc(OCCCC(C)C)cc4)cn3)cc2)C(=O)N2CC(C(=O)O)C2)cc1` [Compound 1230], the EC50 under setting [2] was 0.8 to 2.5 µM.

With `CCCCCCCOc1ccc(-c2cnc(-c3ccc(CC(NC(=O)c4ccc(C(C)(C)C)s4)C(=O)NCCCCC(=O)O)cc3)nc2)cc1` (stereo not drawn) [Compound 459], the EC50 under setting [1] was in the range of 0.8 to 2.5 µM.

For `CCC[C@H]1CC[C@H](C2CCN(c3cnc(-c4ccc(CC(NC(=O)c5ccc(C(C)(C)C)s5)C(=O)NS(=O)(=O)CC(F)(F)F)cc4)nc3)CC2)CC1` (stereo partly drawn) [Compound 1550], the EC50 under setting [2] was below 0.8 µM.

As to `CCCCCCCOc1ccc(-c2cnc(-c3ccc(C[C@H](NC(=O)c4ccc(CCC)s4)C(=O)N4CCC[C@H]4C(=O)O)cc3)nc2)cc1` [Compound 1069], the EC50 under setting [1] lay in the range of 0.8 to 2.5 µM.

Take `C[C@@H](NC(=O)[C@H](Cc1ccc(-c2ncc(-c3ccc(-c4ccc(C(F)(F)F)cc4)c(F)c3)cn2)cc1)NC(=O)c1ccc(C(C)(C)C)s1)C(=O)O` [Compound 1140]: the EC50 under setting [1] is below 0.8 µM.

With `CCCCCCCOc1ccc(-c2cnc(-c3ccc(C[C@H](NC(=O)c4ccc(C(C)(C)C)s4)C(=O)NC(C(=O)O)C(C)c4ccccc4)cc3)nc2)cc1` (stereo partly drawn) [Compound 636], the half-maximal effective concentration (EC50) under setting [1] is below 0.8 µM.

As for `CCCCCCCOc1ccc(-c2cnc(-c3ccc(C[C@H](NC(=O)c4ccc(C(C)(C)C)s4)C(=O)N[C@@H](C(=O)O)[C@@H](C)CC)cc3)nc2)cc1` [Compound 656], the concentration for a half-maximal effect (EC50) under setting [1] lay in the range of 0.8 to 2.5 µM.

In the case of `CCCCCCCOc1ccc(-c2cnc(-c3ccc(C[C@H](NC(=O)c4ccc(C(C)(C)C)s4)C(=O)N[C@@H](CC(=O)N(C)CCN(C)C)C(=O)O)cc3)nc2)cc1` [Compound 520], the EC50 under setting [1] was 0.8 to 2.5 µM.

Consider `CC(C)(C)Cc1noc(-c2cnc(-c3ccc(C[C@H](NC(=O)c4ccc(C(C)(C)C)cc4)C(=O)NCCC(=O)O)cc3)nc2)n1` [Compound 744], for which, under setting [1], the concentration for a half-maximal effect (EC50) is 5 to 10 µM.

On to `CCCCCCCOc1ccc(-c2cnc(-c3ccc(C[C@H](NC(=O)c4ccc(C(C)(C)C)cc4)C(=O)NC(Cc4ccccc4)C(=O)O)cc3)nc2)cc1` (stereo partly drawn) [Compound 561], for which the EC50 under setting [1] is below 0.8 µM.

As to `CCC[C@H]1CC[C@H](C2CCN(c3cnc(-c4ccc(C[C@H](NC(=O)c5ccc(C(C)(C)C)s5)C(=O)N5CC(c6nn[nH]n6)C5)cc4)nc3)CC2)CC1` [Compound 1442], the EC50 under setting [2] was below 0.8 µM.

For the compound `CCCCCCCOc1ccc(-c2cnc(-c3ccc(C[C@H](NC(=O)c4ccc(C(C)(C)C)s4)C(=O)N4CC(C)(C(=O)O)C4)cc3)nc2)cc1` [Compound 874], the EC50 under setting [1] was in the range of 0.8 to 2.5 µM.

`CCCCCCCOc1ccc(-c2cnc(-c3ccc(C[C@H](NC(=O)c4ccc(C(C)(C)C)cc4)C(=O)NCCC(=O)O)cc3)nc2)c(Cl)c1` [Compound 701]: the EC50 under setting [1] is 2.5 to 5 µM.

With `CCCCCCCOc1ccc(-c2cnc(-c3ccc(C[C@H](NC(=O)/C=C/C(C)(C)C)C(=O)NC(C(=O)O)C(O)c4ccccc4)cc3)nc2)cc1` (stereo partly drawn) [Compound 955], the concentration giving a half-maximal response (EC50) under setting [1] lay in the range of 5 to 10 µM.

With `CC(C)(C)c1ccc(C(=O)N[C@@H](Cc2ccc(-c3ncc(-c4ccc(OCCC5CCCC5)cc4)cn3)cc2)C(=O)N2CC(C(=O)O)C2)s1` [Compound 920], the EC50 under setting [1] lay within 0.8 to 2.5 µM.

As for `CCc1ccc(/C=C\c2cnc(-c3ccc(C[C@H](NC(=O)c4ccc(C(C)(C)C)s4)C(=O)N[C@H](C)C(=O)O)cc3)nc2)cc1` [Compound 1277], the 50% effective concentration (EC50) under setting [2] fell in the range of 0.8 to 2.5 µM.

`CCCCCCCOc1ccc(-c2cnc(-c3ccc(C[C@H](NC(=O)c4ccc(C(C)C)cc4)C(=O)N4CC(C(=O)O)C4)cc3)nc2)cc1` [Compound 1113]: the concentration giving a half-maximal response (EC50) under setting [1] was in the range of 0.8 to 2.5 µM.

For `CCC[C@H]1CC[C@H](C2CCN(c3cnc(-c4ccc(C[C@H](NC(=O)c5ccc(C(C)(C)C)s5)C(=O)N[C@@H](C(=O)O)C(C)C)cc4)nc3)CC2)CC1` [Compound 1449], under setting [2], the EC50 is below 0.8 µM.

Regarding `CCCCCCCOc1ccc(-c2cnc(-c3ccc(C[C@H](NC(=O)c4ccc(C(C)(C)C)cc4)C(=O)N[C@H](CC)C(=O)O)cc3)nc2)cc1` [Compound 498], the EC50 under setting [1] lay in the range of 0.8 to 2.5 µM.

With `CCC[C@H]1CC[C@H](C2CCN(c3cnc(-c4ccc(C[C@H](NC(=O)c5ccc(C(C)(C)C)s5)C(=O)NC(CCCOC)C(=O)O)cc4)nc3)CC2)CC1` (stereo partly drawn) [Compound 1458], under setting [2], the EC50 was below 0.8 µM.

On to `CCCCCCCOc1ccc(-c2cnc(-c3ccc(C[C@H](NC(=O)c4ccc(C(C)(C)C)s4)C(=O)NC4CC(N)C4)cc3)nc2)cc1` (stereo partly drawn) [Compound 603], for which the EC50 under setting [1] lay in the range of 0.8 to 2.5 µM.

For the compound `CC(C)(C)c1ccc(-c2cnc(-c3ccc(C[C@H](NC(=O)c4ccc(C(C)(C)C)s4)C(=O)N4CC(C(=O)O)C4)cc3)nc2)cc1` [Compound 783], the half-maximal effective concentration (EC50) under setting [1] fell in the range of 0.8 to 2.5 µM.

Regarding `CCCCCCCOc1ccc(-c2cnc(-c3ccc(C[C@H](NC(=O)c4ccc(C(C)(C)C)s4)C(=O)NC(C(=O)O)C4CCOCC4)cc3)nc2)cc1` (stereo partly drawn) [Compound 396], the EC50 under setting [1] was below 0.8 µM.
